Experimental data published in patent US20170157159A1, “COMBINATION TREATMENT OF ACUTE MYELOID LEUKEMIA AND MYELODYSPLASTIC SYNDROME I” (Boehringer Ingelheim International GmbH, priority 2013, published 2017).

Test system: human AML cell line MV4;11
Assay: Nude mouse xenograft model derived from human AML cell line MV4;11: tumor growth
Assay type: in vivo
Conditions: 21 days, MV4;11 xenograft
Protocol: MV4;11 (CRL-9591) cells were obtained from ATCC. According to the Catalogue of Somatic Mutations in Cancer of the Wellcome Trust Sanger Institute, UK, this cell line carries a mutation in the FLT3 gene. Cells were cultured in T175 tissue culture flasks at 37° C. and 5% CO2. The medium used was IMDM supplemented with 10% fetal calf serum, 1% NEAA, 1% sodium pyruvate and 1% glutamine.
Mice were 8-9 week-old athymic female BomTac: NMRI-Foxn1^nu purchased from Taconic, Denmark. After arrival in the animal facility, mice were allowed to adjust to ambient conditions for at least 3 days before they were used for experiments. They were housed in Macrolon® type II cages in groups of 5 under standardized conditions at 21.5±1.5° C. temperature and 55±10% humidity. Standardized diet (PROVIMI KLIBA) and autoclaved tap water were provided ad libitum.
To establish subcutaneous tumors, MV4;11 cells were harvested and resuspended in PBS+5% FCS at 5×10^7 cells/ml. 50 μl of the cell suspension containing 2.5×10^6 cells was then injected subcutaneously into the right flank of the mice (1 site per mouse). Growth factor reduced BD Matrigel™ Matrix (BD Biosciences) was added to the cell suspension at a ratio of 1:1 before the injection.
Volasertib (BI 6727) was dissolved in hydrochloric acid (0.1 N), diluted with 0.9% NaCl and injected intravenously into the tail vein. An administration volume of 10 ml per kg body weight was used. The solution was freshly made up each injection day. Decitabine was dissolved in 0.9% NaCl and administered i.p. An administration volume of 10 ml per kg body weight was used.
The tumor diameter was measured three times a week with a caliper. The volume of each tumor [in mm^3] was calculated according to the formula “tumor volume=length*diameter^2*π/6”. To monitor side effects of treatment, mice were inspected daily for abnormalities and body weight was determined three times a week. […] In addition animals with tumor sizes exceeding 2000 mm^3 were sacrificed early during the studies for ethical reasons.
(§1) Animals were treated for 21 days.
as §1, §1

Row | SMILES | T/C (ratio of median tumor volume of treated vs. control tumors) (decitabine alone 1.25 mg/kg i.p. twice weekly on two consecutive days) [%] | T/C (ratio of median tumor volume of treated vs. control tumors) (decitabine alone 2.5 mg/kg i.p. twice weekly on two consecutive days) [%] | T/C (ratio of median tumor volume of treated vs. control tumors) (Volasertib alone 10 mg/kg i.v. once weekly) [%] | T/C (ratio of median tumor volume of treated vs. control tumors) (Volasertib alone 20 mg/kg i.v. once weekly) [%]
1 | Nc1ncn([C@H]2C[C@H](O)[C@@H](CO)O2)c(=O)n1 [decitabine, Decitabine] | 59 | 53 | – | –
2 | CC[C@@H]1C(=O)N(C)c2cnc(Nc3ccc(C(=O)N[C@H]4CC[C@H](N5CCN(CC6CC6)CC5)CC4)cc3OC)nc2N1C(C)C [Volasertib, N-[trans-4-[4-(cyclopropylmethyl)-1-piperazinyl]cyclohexyl]-4-[[(7R)-7-ethyl-5,6,7,8-tetrahydro-5-methyl-8-(1-methylethyl)-6-oxo-2-pteridinyl]amino]-3-methoxy-benzamide] | – | – | 76 | 38
